Measurements from patent US7786141B2 (Vertex Pharmaceuticals Incorporated, priority 2004, dated 2010).

Columns and labels:
[1] = target: T1, M1 muscarinic receptor (Homo sapiens, UniProt P11229); assay: Functional mobilization of intracellular calcium (FLIPR) in M1-CHO cells; type: cell-based; conditions: M1 receptor, calcium mobilization; for Emax: read-out: M1 Efficacy
T1 construct: expressed in transfected cells; host or cells: CHO (M1-CHO)
T1 sequence (P11229 1-460): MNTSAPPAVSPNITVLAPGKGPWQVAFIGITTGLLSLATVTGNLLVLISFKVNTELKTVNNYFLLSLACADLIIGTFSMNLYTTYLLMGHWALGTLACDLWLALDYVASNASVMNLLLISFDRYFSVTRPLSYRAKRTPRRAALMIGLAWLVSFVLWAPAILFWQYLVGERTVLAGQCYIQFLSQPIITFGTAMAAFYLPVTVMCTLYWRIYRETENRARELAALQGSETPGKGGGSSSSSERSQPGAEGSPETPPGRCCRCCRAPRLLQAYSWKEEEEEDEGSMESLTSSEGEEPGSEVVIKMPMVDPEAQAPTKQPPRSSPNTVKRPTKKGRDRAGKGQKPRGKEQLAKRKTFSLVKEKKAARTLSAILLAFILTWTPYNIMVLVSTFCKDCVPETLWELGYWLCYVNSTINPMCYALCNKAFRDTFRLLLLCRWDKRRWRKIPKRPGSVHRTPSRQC
Outline: (§1)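 Intracellular calcium rise is measured by FLIPR fluorescence over 60 sec in CHO cells carrying human M1 or M4 receptors. Compounds are tested alone as agonists, or pre-incubated 15 min (or co-applied) ahead of carbachol at its EC80 to detect inhibition.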

[2] = target: T2, M4 muscarinic receptor (Homo sapiens, UniProt P08173); assay: Functional mobilization of intracellular calcium (FLIPR) in M4-CHO cells; type: cell-based; conditions: M4 receptor, calcium mobilization; for Emax: read-out: M4 Efficacy
T2 construct: expressed in transfected cells; host or cells: CHO (M4-CHO)
T2 sequence (P08173 1-479): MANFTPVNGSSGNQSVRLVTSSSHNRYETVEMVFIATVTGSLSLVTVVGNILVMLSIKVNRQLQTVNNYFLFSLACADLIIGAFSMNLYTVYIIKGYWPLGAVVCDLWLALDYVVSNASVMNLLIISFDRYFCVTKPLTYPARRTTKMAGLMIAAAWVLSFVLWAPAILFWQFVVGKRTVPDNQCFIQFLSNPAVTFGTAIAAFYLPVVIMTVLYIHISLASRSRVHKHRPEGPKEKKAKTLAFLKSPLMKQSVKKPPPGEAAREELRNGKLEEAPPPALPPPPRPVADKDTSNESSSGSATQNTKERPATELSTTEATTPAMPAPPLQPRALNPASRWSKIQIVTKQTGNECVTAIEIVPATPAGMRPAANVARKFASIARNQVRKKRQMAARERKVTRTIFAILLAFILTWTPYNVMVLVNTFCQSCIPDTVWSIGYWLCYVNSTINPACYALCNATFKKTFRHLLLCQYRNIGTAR
Outline: as §1

CC(=O)N1CC2(CCN(C3CCN(C(=O)OC(C)C)CC3)CC2)c2cc(F)ccc21 [compound 269]
M1 Activity [1]: xxx (activity was measured to be less than 0.1 μM)
Emax [1]: 65 to 85%
M4 Activity [2]: xxx (activity was measured to be less than 0.1 μM)
Emax [2]: > 85%

CCCCC(=O)N1CC2(CCN(C3CCN(C(=O)OCC)CC3)CC2)c2cc(F)ccc21 [compound 270]
M1 Activity [1]: xxx (activity was measured to be less than 0.1 μM)
Emax [1]: 65 to 85%
M4 Activity [2]: xxx (activity was measured to be less than 0.1 μM)
Emax [2]: > 85%

O=C(OC1CCCC1)N1C2CCC1CC(N1CCC3(CC1)C(=O)Nc1ccccc13)C2 (stereo not shown) [compound 271]
M1 Activity [1]: xxx (activity was measured to be less than 0.1 μM)
Emax [1]: 65 to 85%
M4 Activity [2]: xxx (activity was measured to be less than 0.1 μM)
Emax [2]: < 65%

c1ccc2c(c1)NCC21CCN(C2CC3CCC2C3)CC1 (stereo not shown) [compound 272]
M1 Activity [1]: xxx (activity was measured to be less than 0.1 μM)
Emax [1]: 65 to 85%
M4 Activity [2]: xxx (activity was measured to be less than 0.1 μM)
Emax [2]: > 85%

CC(=O)N[C@H]1CC2(CCN(C3CCC(c4ccccc4)CC3)CC2)c2ccccc21 (stereo partly shown) [compound 273]
M1 Activity [1]: xxx (activity was measured to be less than 0.1 μM)
Emax [1]: > 85%
M4 Activity [2]: xx (activity was measured to be between 0.1 μM and 1.0 μM)
Emax [2]: > 85%

CC(=O)N[C@H]1CC2(CCN([C@H]3C[C@@H]4CC[C@@H]3C4)CC2)c2ccccc21 [compound 274]
M1 Activity [1]: xxx (activity was measured to be less than 0.1 μM)
Emax [1]: 65 to 85%
M4 Activity [2]: x (activity was measured to be greater than 1.0 μM)
Emax [2]: > 85%

CCOC(=O)N[C@@H]1CC2(CCN(C[C@H]3C[C@H]4CC[C@H]3C4)CC2)c2ccccc21 [compound 275]
M1 Activity [1]: xxx (activity was measured to be less than 0.1 μM)
Emax [1]: 65 to 85%
M4 Activity [2]: xx (activity was measured to be between 0.1 μM and 1.0 μM)
Emax [2]: > 85%

Clc1ccc2c(c1)C1(CCO2)CCN(C2CCCCC2)CC1 [compound 276]
M1 Activity [1]: xxx (activity was measured to be less than 0.1 μM)
Emax [1]: 65 to 85%
M4 Activity [2]: x (activity was measured to be greater than 1.0 μM)
Emax [2]: 65 to 85%

CCOC(=O)N1CCC(N2CCC3(CC2)CN(C(C)=O)c2ccc(-c4ccccc4C#N)cc23)CC1 [compound 277]
M1 Activity [1]: xxx (activity was measured to be less than 0.1 μM)
Emax [1]: 65 to 85%
M4 Activity [2]: x (activity was measured to be greater than 1.0 μM)
Emax [2]: < 65%

CCOC(=O)N1C2CCC1CC(N1CCC3(CC1)c1ccccc1C(=O)C3(C)C)C2 (stereo not shown) [compound 278]
M1 Activity [1]: xx (activity was measured to be between 0.1 μM and 1.0 μM)
Emax [1]: 65 to 85%
M4 Activity [2]: xx (activity was measured to be between 0.1 μM and 1.0 μM)
Emax [2]: 65 to 85%

CC(=O)N1CC2(CCN(C3CCN(C(=O)O[C@@H]4CCOC4)CC3)CC2)c2cc(C)ccc21 [compound 279]
M1 Activity [1]: xx (activity was measured to be between 0.1 μM and 1.0 μM)
Emax [1]: < 65%
M4 Activity [2]: xx (activity was measured to be between 0.1 μM and 1.0 μM)
Emax [2]: < 65%

CC(=O)N[C@H]1CC2(CCN(C3CCC(C)CC3)CC2)c2ccccc21 (stereo partly shown) [compound 280]
M1 Activity [1]: x (activity was measured to be greater than 1.0 μM)
Emax [1]: 65 to 85%
M4 Activity [2]: x (activity was measured to be greater than 1.0 μM)
Emax [2]: 65 to 85%

CCOC(=O)N1CCC(N2CCC3(CC2)CN(C(=O)C2CCCCC2)c2ccc(F)cc23)CC1 [compound 281]
M1 Activity [1]: xx (activity was measured to be between 0.1 μM and 1.0 μM)
Emax [1]: < 65%
M4 Activity [2]: xx (activity was measured to be between 0.1 μM and 1.0 μM)
Emax [2]: 65 to 85%

CCOC(=O)N1CCC(N2CCC3(CC2)CN(C(=O)C(C)(C)C)c2ccc(F)cc23)CC1 [compound 282]
M1 Activity [1]: xxx (activity was measured to be less than 0.1 μM)
Emax [1]: < 65%
M4 Activity [2]: xx (activity was measured to be between 0.1 μM and 1.0 μM)
Emax [2]: 65 to 85%

CCCOC(=O)N1C2CCC1CC(N1CCC3(CC1)COc1ccc(F)cc13)C2 (stereo not shown) [compound 283]
M1 Activity [1]: xx (activity was measured to be between 0.1 μM and 1.0 μM)
Emax [1]: 65 to 85%
M4 Activity [2]: x (activity was measured to be greater than 1.0 μM)
Emax [2]: 65 to 85%

COCCOC(=O)N1CCC(N2CCC3(CC2)CN(C(C)=O)c2ccc(F)cc23)CC1 [compound 284]
M1 Activity [1]: xx (activity was measured to be between 0.1 μM and 1.0 μM)
Emax [1]: < 65%
M4 Activity [2]: xx (activity was measured to be between 0.1 μM and 1.0 μM)
Emax [2]: < 65%

CC(C)OC(=O)N1C2CCC1CC(N1CCC3(CCc4ccccc43)CC1)C2 (stereo not shown) [compound 285]
M1 Activity [1]: xx (activity was measured to be between 0.1 μM and 1.0 μM)
Emax [1]: < 65%
M4 Activity [2]: x (activity was measured to be greater than 1.0 μM)
Emax [2]: < 65%

CCCCOC(=O)N1C2CCC1CC(N1CCC3(CC1)COc1ccc(F)cc13)C2 (stereo not shown) [compound 286]
M1 Activity [1]: xx (activity was measured to be between 0.1 μM and 1.0 μM)
Emax [1]: < 65%
M4 Activity [2]: x (activity was measured to be greater than 1.0 μM)
Emax [2]: < 65%

COC(=O)N1CC2(CCN(C3CC4CCC(C3)N4C(=O)OCC(C)C)CC2)c2cc(F)ccc21 (stereo not shown) [compound 287]
M1 Activity [1]: xx (activity was measured to be between 0.1 μM and 1.0 μM)
Emax [1]: < 65%
M4 Activity [2]: x (activity was measured to be greater than 1.0 μM)
Emax [2]: < 65%

Clc1ccc2c(c1)C1(CCO2)CCN(CC2CCOCC2)CC1 [compound 288]
M1 Activity [1]: x (activity was measured to be greater than 1.0 μM)
Emax [1]: < 65%
M4 Activity [2]: x (activity was measured to be greater than 1.0 μM)
Emax [2]: < 65%

CC(C)NC(=O)N1C2CCC1CC(N1CCC3(CC1)COc1ccc(F)cc13)C2 (stereo not shown) [compound 289]
M1 Activity [1]: xxx (activity was measured to be less than 0.1 μM)
Emax [1]: < 65%
M4 Activity [2]: x (activity was measured to be greater than 1.0 μM)
Emax [2]: < 65%

CCOC(=O)N1CCC(N2CCC3(CC2)CN(C(=O)N2CCOCC2)c2ccc(F)cc23)CC1 [compound 290]
M1 Activity [1]: xxx (activity was measured to be less than 0.1 μM)
Emax [1]: < 65%
M4 Activity [2]: x (activity was measured to be greater than 1.0 μM)
Emax [2]: < 65%

CC(=O)NC1CC2(CCN(C3CC4CCC3C4)CC2)c2ccccc21 (stereo not shown) [compound 291]
M1 Activity [1]: xx (activity was measured to be between 0.1 μM and 1.0 μM)
Emax [1]: 65 to 85%
M4 Activity [2]: x (activity was measured to be greater than 1.0 μM)
Emax [2]: 65 to 85%

Cc1ccc2c(c1)C1(CCN(C3CC4CCC3C4)CC1)CN2C(=O)c1ccno1 (stereo not shown) [compound 292]
M1 Activity [1]: xx (activity was measured to be between 0.1 μM and 1.0 μM)
Emax [1]: 65 to 85%
M4 Activity [2]: x (activity was measured to be greater than 1.0 μM)
Emax [2]: 65 to 85%

COCCOC(=O)N1CCC(N2CCC3(CC2)CN(C(C)=O)c2ccc(C)cc23)CC1 [compound 293]
M1 Activity [1]: xx (activity was measured to be between 0.1 μM and 1.0 μM)
Emax [1]: > 85%
M4 Activity [2]: xxx (activity was measured to be less than 0.1 μM)
Emax [2]: > 85%

CCCOC(=O)N1C2CCC1CC(N1CCC3(CC1)CN(S(C)(=O)=O)c1ccc(F)cc13)C2 (stereo not shown) [compound 294]
M1 Activity [1]: xx (activity was measured to be between 0.1 μM and 1.0 μM)
Emax [1]: > 85%
M4 Activity [2]: xx (activity was measured to be between 0.1 μM and 1.0 μM)
Emax [2]: 65 to 85%

CCOC(=O)N1CCC(N2CCC3(CC2)CN(C(C)=O)c2ccc(-c4ccc(C(F)(F)F)cc4)cc23)CC1 [compound 295]
M1 Activity [1]: xxx (activity was measured to be less than 0.1 μM)
Emax [1]: 65 to 85%
M4 Activity [2]: xxx (activity was measured to be less than 0.1 μM)
Emax [2]: 65 to 85%

CCOC(=O)N1C2CCC1CC(N1CCC3(CC1)CN(C(=O)NC(C)C)c1ccc(F)cc13)C2 (stereo not shown) [compound 296]
M1 Activity [1]: x (activity was measured to be greater than 1.0 μM)
Emax [1]: 65 to 85%
M4 Activity [2]: x (activity was measured to be greater than 1.0 μM)
Emax [2]: 65 to 85%
